Test results: PMC11637483, “Dissecting caspase-2-mediated cell death: from intrinsic PIDDosome activation to chemical modulation” (Protein & Cell, 2024)

Tests used:
[1] = system: mouse caspase-2-expressing HeLa cells; assay: Cell death and caspase-2 processing in HeLa TKO cells expressing mouse caspase-2; type: cell-based; details: high concentrations of HUHS015
Excerpt: Figure 4. HUHS015 activates human caspase-2 directly through specific targeting of the interdomain linker of caspase-2. (A) The direct binding between HUHS015-36 and MBP-fused human caspase-2 pro-domain was detected by microscale thermophoresis (MST). MST profiles for raw binding signals and affinity (KD) measurement are shown. The calculated dissociation constant (KD) is expressed as means ± s.d. from two determinations. (B) Sequence alignment of the pro-domain (residues 1–169) of human and mouse caspase-2. CARD domain annotation is shown on top of the sequences. Identical residues are in red background and conserved ones are in red. Numbers of starting residues are indicated on the left. Different residues in the interdomain linker (residues 122–169) were highlighted with green color. (C) HUHS015 activates human but not mouse caspase-2. HeLa TKO cells rescued with human or mouse caspase-2 expression were treated with HUHS015 for the indicated time. […] ATP-based cell viability in panels (C–E) is expressed as mean ± s.d. from three technical replicates. […] TEXT PRINTED IN THE PICTURE: (A) HUHS015-36: MBP-CASP2(32–165) vs. HUHS015-36: KD (μmol/L): 22.05 ± 6.151; MBP vs. HUHS015-36: KD (μmol/L): Not detected […]
Cell viability was measured by the ATP assay using the CellTiter-Glo® Luminescent Cell Viability Assay kit (Promega).

[2] = system: HeLa-CASP2−/−CASP3−/−GSDMD−/− (TKO) cells; assay: Cell death in control HeLa triple knockout cells without active caspase-2; type: cell-based, human
Excerpt: Specific chemical compounds are powerful tools for dissecting target-related signaling mechanisms in biological contexts ([Beck et al., 2022]; [Zhang et al., 2012]). Prompted by this notion and possibly to identify a compound that could activate the PIDDosome, we designed a cell death-based high-throughput chemical screen in HeLa cells, in which a triple knockout of CASP2, CASP3, and GSDMD were constructed. CASP3 and GSDMD deficiency served as the background to minimize compound-induced nonspecific cytotoxicity and undesired pyroptosis. Using the triple knockout cells as the control, additional expression of exogenous caspase-2 allows the identification of compounds that can specifically activate the caspase-2-BID pathway and trigger apoptosis through caspase-7. […]
Figure 3. […] The ratios of the cell viability between the two groups are calculated with 3 as a cutoff for positive compound hit selection. […] Processing of caspase-2, -3, and -7 was analyzed by immunoblotting. […] ATP-based cell viability in panels (B and D) is expressed as mean ± s.d. from three technical replicates. […]
Drug-related Screening Library (25 × 384-well plate, more than 7,000 compounds) was used for the chemical screen in the TKO HeLa cells rescued with exogenous caspase-2 expression. […] After treatment for 12 h, the cell viability was measured by the ATP assay. […]

`Cc1ccc2nc(-n3nc(C)c(Cc4ccccc4)c3O)[nH]c2c1` [HUHS015] was tested, and the “apoptosis / caspase-2 processing” value [1] was “no apoptosis”, the cell death ([2]; TKO cells expressing protease-deficient caspase-2 C320A) was “no cell death” and the “cell death selectivity, caspase-2-expressing vs control TKO cells” value ([2]; chemical screen, 12 h) was “robust cell death selectively in caspase-2-expressing but not the control triple knockout cells”.
